One test deals with V. cholerae VC1 WT. The test is described as follows: RT-qPCR of QS genes. Particulars: 100 μM. The format is cell-based, Vibrio cholerae. The procedure:
RNA was extracted from wild-type strain VC1 cultured in LB lennox medium supplemented with or without 100 μM Tryptophol acetate or Tyrosol acetate grown to an A600 of approximately 1.0OD using the RNA Protect Bacteria reagent and the RNeasy® Mini Kit (Qiagen, Valencia, Calif.) as per the manufacturer's instructions, including the on-column DNase I digestion described by the manufacturer. Purified RNA was quantified using a Banalyzer (Eppendorf, Hamburg, Germany). cDNA was synthesized from 1 μg of RNA using PrimeScript™ RT reagent kit (Takara, Ohtsu, Japan). The reaction was incubated at 37° C. for 30 min, and 2 μl of cDNA was subjected to RT-PCR analysis on an AB Step One Plus PCR system (Applied Biosystems, Carlsbad, Calif.), using qPCRBIO SyGreen Blue mix Hi-ROX (PCR Biosystems, London, UK). RT-PCR was performed in a 96-well plate (Bio-Rad) in triplicate in a 20 μl volume. The mdh gene was used as an endogenous loading control for the reactions. The amount of transcript was analyzed with StepOnePlus Software V2.3 (Applied Biosystems Carlsbad, Calif.). Mdh forward primer 5′-[…]-3′ (SEQ ID NO: 1); Mdh reverse primer 5′-[…]-3′ (SEQ ID NO: 2); vpsT forward primer 5′-[…]-3′ (SEQ ID NO: 3); vpsT reverse primer 5′-[…]-3′ (SEQ ID NO: 4); ctxA forward primer 5′-[…]-3′ (SEQ ID NO: 5); ctxA reverse primer 5′-[…]-3′ (SEQ ID NO: 6); aphA forward primer 5′-[…]-3′ (SEQ ID NO: 7); aphA reverse primer 5′-[…]-3′ (SEQ ID NO: 8). For Transcriptome libraries construction, we used the purified RNA as described in section Quantitative Real-time PCR (RT-PCR) Analysis. The ribosomal RNA was depleted using MICROBExpress kit (Invitrogen by Thermo Fisher Scientific, Lithuania). The libraries preparation was performed using SMARTer Standard RNA-Seq kit (Takara Bio, USA) according to manufacture instruction. High Throughput Sequencing Analysis was done by Illumina HiSeq 2500, SR 50 bp and barcode Raw data quality values phred+33. the amount and percentage of reads that passed the sequencer's automated quality filter, control mapping value, error rate, and per-base quality scores indicate that the sequencing was of high quality. Only a small percentage of reads were discarded due to trimming and the peak of the length distribution is at the original length of 51. The Software and applications that were used for comparison analyses are Library quality control: FASTQC version 0.11.5; Trim_galore (uses cutadapt version 1.10); Mapping: Tophat2 version 2.1.0 (uses Bowtie2 version 2.2.6); Gene counting: HTseq-count version 0.6.1. For normalization and differential expression analysis, DESeq2 R package version 1.18.1 Input files. The reference genome used in the analysis was of Vibrio cholerae O1 biovar El Tor str. N16961, from the following link: ftp://ftp.ncbi.nlm.nih.gov/genomes/all/GCF/000/006/745/GCF_000006745.1_ASM674v1. Counting was performed using an annotation file downloaded at the following link: ftp://ftp.ncbi.nlm.nih.gov/genomes/all/GCF/000/006/745/GCF_000006745.1_ASM674v1/G CF_000006745.1_ASM674v1_genomic.gtf.gz. All these files can be found in our FTP server, see section 4-Analysis result files.
On the technique in general: In qPCR the cycle at which signal appears reflects the starting amount.

A short description of test [1]: Oxygen radical absorbance capacity (ORAC) assay. Particulars: AAPH-induced. Type of test: biochemical. An excerpt: FIGS. 34A-34B are graphs showing the anti-oxidation effect of tryptophol acetate and tyrosol acetate. Anti-oxidative capacity of the molecules as measured by DPPH (34A) and ORAC (34B) assays. 34A. The results are presented as a percentage of absorbance inhibition (517 nm, the absorbance maximum of DPPH) in the presence of tryptophol acetate (1) alone, tyrosol acetate alone (2) alone, and 1+2 together. 34B. Fluorescence decay of fluorescein induced by AAPH in the absence or presence of 1 and 2. Reaction mixtures containing fluorescein (60 nM) and AAPH (18.75 mM) in 200 μl of phosphate buffer (75 mM, pH 7.4) were incubated at 37° C. for 800 min. Changes in fluorescence intensity emitted by fluorescein were monitored. Results are presented as the net area under the curve (AUC). Each value is the mean±SD of triplicate experiments. ***p<0.0001
The ORAC experiment measures the quenching of fluorescein emission by peroxyl radicals, and inhibition of the oxidation reaction by molecular species added to the solution.

Each structure is given as a SMILES string.

For `CC(=O)OCCc1ccc(O)cc1` [Tyrosol acetate], the “QS-related genes' expression” value in the test with V. cholerae VC1 WT is “affect QS-related genes' expression”. For the same molecule, the “Fluorescence decay of fluorescein” value in test [1] is around 800 min.

As for `CC(=O)OCCc1c[nH]c2ccccc12` [Tryptophol acetate], in the test on V. cholerae VC1 WT (high cell density), the aphA expression result is reported as “upregulation”, the ctxA expression result is “significantly repressed”, the hapA expression result was “lower expression” and the hapR expression entry was “significant downregulation”. Besides, the vpsT expression result with V. cholerae VC1 WT (high cell density) is “remarkable upregulation”. Moreover, in test [1], the “Fluorescence decay of fluorescein” value is recorded as “around 400 min”.

Source of the values: patent US20220160680A1, “MICROORGANISM MIXTURES, MOLECULES DERIVED THEREFROM, AND METHODS OF USE THEREOF” (B. G. Negev Technologies and Applications Ltd., at …, priority 2018, published 2022).
